Broadly, the DC50 is the concentration giving 50% degradation. A lower DC50 goes with a more potent degrader. As a reminder, the Emax is the size of the effect at its maximum, as opposed to the concentration needed.

The results in this text go back to patent US12559492B2, “BRAF degraders” (C4 Therapeutics, Inc., priority 2020, dated 2026).

In this assay the target is BRAF^V600E protein (Homo sapiens, UniProt P15056, V600E). Briefly: HiBiT cellular BRAF V600E degradation assay. The conditions noted are these: 24 h incubation; for DC50: A375.10 cells (HiBiT tag knocked in at N-terminal of BRAF V600E), concentration at which 50% of total cellular BRAF V600E is degraded; for Emax: A375.10 cells, Emax = amount of residual protein remaining in the cell after compound treatment, read-out: HiBit 24 h Emax. It counts as cell-based.
Chain of BRAF^V600E protein (P15056 whole entry V600E): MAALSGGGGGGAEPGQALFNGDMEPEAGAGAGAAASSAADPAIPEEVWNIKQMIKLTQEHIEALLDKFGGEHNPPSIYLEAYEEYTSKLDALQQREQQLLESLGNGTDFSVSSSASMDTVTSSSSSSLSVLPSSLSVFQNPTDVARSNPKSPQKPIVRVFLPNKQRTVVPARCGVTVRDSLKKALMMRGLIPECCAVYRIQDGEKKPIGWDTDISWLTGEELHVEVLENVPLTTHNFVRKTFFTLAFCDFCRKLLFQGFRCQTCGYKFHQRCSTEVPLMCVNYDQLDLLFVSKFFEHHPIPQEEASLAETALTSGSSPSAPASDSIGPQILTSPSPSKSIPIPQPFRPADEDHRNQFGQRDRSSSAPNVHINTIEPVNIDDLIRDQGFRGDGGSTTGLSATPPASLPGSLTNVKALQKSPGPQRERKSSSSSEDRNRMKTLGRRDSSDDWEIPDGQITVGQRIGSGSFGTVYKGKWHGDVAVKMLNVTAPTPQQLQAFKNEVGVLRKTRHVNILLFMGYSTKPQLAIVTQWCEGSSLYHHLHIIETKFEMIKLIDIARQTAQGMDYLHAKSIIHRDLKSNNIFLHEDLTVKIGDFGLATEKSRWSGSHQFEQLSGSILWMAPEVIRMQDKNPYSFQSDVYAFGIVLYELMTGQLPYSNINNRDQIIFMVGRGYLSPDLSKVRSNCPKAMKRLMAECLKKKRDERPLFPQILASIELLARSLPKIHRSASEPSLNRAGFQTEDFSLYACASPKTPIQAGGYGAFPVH

`CCN(C)S(=O)(=O)Nc1cccc(C(=O)c2c[nH]c3ncc(-c4ccc(N5CCN(C(=O)CC6(O)CCN(c7ccc(C8CCC(=O)NC8=O)cc7F)CC6)CC5)nc4)cc23)c1F` (stereo not shown) [Example 159, 5-[6-[4-[2-[1-[4-(2,6-dioxo-3-piperidyl)-2-fluoro-phenyl]-4-hydroxy-4-piperidyl]acetyl]piperazin-1-yl]-3-pyridyl]-3-[3-[[ethyl(methyl)sulfamoyl]amino]-2-fluoro-benzoyl]-1H-pyrrolo[2,3-b]pyridine]: the DC50 was 3.51 nM and the Emax was found to be 6.33%.

For the molecule `CCN(C)S(=O)(=O)Nc1ccc(F)c(C(=O)c2c[nH]c3ncc(-c4ccc(N5CCN(C(=O)CC6(O)CCN(c7ccc(C8CCC(=O)NC8=O)cc7F)CC6)CC5)nc4)cc23)c1F` (stereo not shown) [Example 160, 5-[6-[4-[2-[1-[4-(2,6-dioxo-3-piperidyl)-2-fluoro-phenyl]-4-hydroxy-4-piperidyl]acetyl]piperazin-1-yl]-3-pyridyl]-3-[3-[[ethyl(methyl)sulfamoyl]amino]-2,6-difluoro-benzoyl]-1H-pyrrolo[2,3-b]pyridine], the DC50 stood at 3.12 nM and the maximal effect (Emax) was determined as 6.7%.

On to `CCN(C)S(=O)(=O)Nc1ccc(F)c(C(=O)c2c[nH]c3ncc(-c4cnc(N5CCC(n6cc7c(n6)CN(c6ccc(NC8CCC(=O)NC8=O)cc6)CC7)CC5)nc4)cc23)c1F` (stereo not shown) [Example 161, 6-[4-[(2,6-dioxo-3-piperidyl)amino]phenyl]-2-[1-[5-[3-[3-[[ethyl(methyl)sulfamoyl]amino]-2,6-difluoro-benzoyl]-1H-pyrrolo[2,3-b]pyridin-5-yl]pyrimidin-2-yl]-4-piperidyl]-5,7-dihydro-4H-pyrazolo[3,4-c]pyridine], for which half-maximal degradation (DC50) was put at 14.6 nM and the Emax was determined as 8.46%.

`CCN(C)S(=O)(=O)Nc1cccc(C(=O)c2c[nH]c3ncc(-c4cnc(N5CCN(C(=O)CC6(O)CCN(c7ccc(C8CCC(=O)NC8=O)cc7F)CC6)CC5)nc4)cc23)c1F` (stereo not shown) [Example 162, 5-[2-[4-[2-[1-[4-(2,6-dioxo-3-piperidyl)-2-fluoro-phenyl]-4-hydroxy-4-piperidyl]acetyl]piperazin-1-yl]pyrimidin-5-yl]-3-[3-[[ethyl(methyl)sulfamoyl]amino]-2-fluoro-benzoyl]-1H-pyrrolo[2,3-b]pyridine]: the DC50 came to 2.09 nM and the Emax is 7.81%.

For `CCN(C)S(=O)(=O)Nc1ccc(F)c(C(=O)c2c[nH]c3ncc(-c4cnc(N5CCN(C(=O)CC6(O)CCN(c7ccc8c(N9CCC(=O)NC9=O)nn(C)c8c7)CC6)CC5)nc4)cc23)c1F` [Example 163, 3-(2,4-dioxohexahydropyrimidin-1-yl)-6-[4-[2-[4-[5-[3-[3-[[ethyl(methyl)sulfamoyl]amino]-2,6-difluoro-benzoyl]-1H-pyrrolo[2,3-b]pyridin-5-yl]pyrimidin-2-yl]piperazin-1-yl]-2-oxo-ethyl]-4-hydroxy-1-piperidyl]-1-methyl-indazole], the DC50 is 4.52 nM and the Emax is 9.67%.

As to `CCN(C)S(=O)(=O)Nc1cccc(C(=O)c2c[nH]c3ncc(-c4ccc(N5CCN(C(=O)CC6(O)CCN(c7ccc(N8CCC(=O)NC8=O)cc7F)CC6)CC5)nc4)cc23)c1F` [Example 164, 5-[6-[4-[2-[1-[4-(2,4-dioxohexahydropyrimidin-1-yl)-2-fluoro-phenyl]-4-hydroxy-4-piperidyl]acetyl]piperazin-1-yl]-3-pyridyl]-3-[3-[[ethyl(methyl)sulfamoyl]amino]-2-fluoro-benzoyl]-1H-pyrrolo[2,3-b]pyridine], the DC50 was 2.31 nM and the maximum response (Emax) came out at 10.2%.

Consider `CCN(C)S(=O)(=O)Nc1cccc(C(=O)c2c[nH]c3ncc(-c4cnc(N5CCN(C(=O)CC6(O)CCN(c7ccc(N8CCC(=O)NC8=O)cc7F)CC6)CC5)nc4)cc23)c1F` [Example 165, 5-[2-[4-[2-[1-[4-(2,4-dioxohexahydropyrimidin-1-yl)-2-fluoro-phenyl]-4-hydroxy-4-piperidyl]acetyl]piperazin-1-yl]pyrimidin-5-yl]-3-[3-[[ethyl(methyl)sulfamoyl]amino]-2-fluoro-benzoyl]-1H-pyrrolo[2,3-b]pyridine], for which half-maximal degradation (DC50) was put at 6.27 nM and the Emax worked out at 10.8%.

With `CCN(C)S(=O)(=O)Nc1ccc(F)c(C(=O)c2c[nH]c3ncc(-c4cnc(N5CCN(C(=O)CC6(O)CCN(c7ccc(N8CCC(=O)NC8=O)cc7F)CC6)CC5)nc4)cc23)c1F` [Example 167, 5-[2-[4-[2-[1-[4-(2,4-dioxohexahydropyrimidin-1-yl)-2-fluoro-phenyl]-4-hydroxy-4-piperidyl]acetyl]piperazin-1-yl]pyrimidin-5-yl]-3-[3-[[ethyl(methyl)sulfamoyl]amino]-2,6-difluoro-benzoyl]-1H-pyrrolo[2,3-b]pyridine], the DC50 came to 7.05 nM and the maximal effect (Emax) is 9.37%.

For the molecule `CCN(C)S(=O)(=O)Nc1ccc(F)c(C(=O)c2c[nH]c3ncc(-c4ccc(N5CCN(C(=O)CC6(O)CCN(c7ccc(N8CCC(=O)NC8=O)cc7F)CC6)CC5)nc4)cc23)c1F` [Example 168, 5-[6-[4-[2-[1-[4-(2,4-dioxohexahydropyrimidin-1-yl)-2-fluoro-phenyl]-4-hydroxy-4-piperidyl]acetyl]piperazin-1-yl]-3-pyridyl]-3-[3-[[ethyl(methyl)sulfamoyl]amino]-2,6-difluoro-benzoyl]-1H-pyrrolo[2,3-b]pyridine], it took 3 nM to reach half-maximal degradation (DC50) and the Emax is 10.2%.

On to `CCN(C)S(=O)(=O)Nc1ccc(F)c(C(=O)c2c[nH]c3ncc(-c4ccc(N5CCN(C(=O)CC6(O)CCN(c7ccc(N8CCC(=O)NC8=O)cc7F)CC6)CC5)cc4)cc23)c1F` [Example 169, 5-[4-[4-[2-[1-[4-(2,4-dioxohexahydropyrimidin-1-yl)-2-fluoro-phenyl]-4-hydroxy-4-piperidyl]acetyl]piperazin-1-yl]phenyl]-3-[3-[[ethyl(methyl)sulfamoyl]amino]-2,6-difluoro-benzoyl]-1H-pyrrolo[2,3-b]pyridine], for which the DC50 worked out at 2.82 nM and the Emax is 7.34%.

Take `CCN(C)S(=O)(=O)Nc1ccc(F)c(C(=O)c2c[nH]c3ncc(-c4ccc(N5CCN(C(=O)CC6(O)CCN(c7ccc(NC8CCC(=O)NC8=O)cc7F)CC6)CC5)nc4)cc23)c1Cl` (stereo not shown) [Example 170, 3-[2-chloro-3-[[ethyl(methyl)sulfamoyl]amino]-6-fluoro-benzoyl]-5-[6-[4-[2-[1-[4-[(2,6-dioxo-3-piperidyl)amino]-2-fluoro-phenyl]-4-hydroxy-4-piperidyl]acetyl]piperazin-1-yl]-3-pyridyl]-1H-pyrrolo[2,3-b]pyridine]: it took 4.59 nM to reach half-maximal degradation (DC50) and the maximal response (Emax) came to 10.5%.

Consider `CCN(C)S(=O)(=O)Nc1ccc(F)c(C(=O)c2c[nH]c3ncc(-c4ccc(N5CCN(C(=O)CN6CCC(N7CCN(C8CCC(=O)NC8=O)C(=O)C7)C(F)(F)C6)CC5)nc4)cc23)c1F` (stereo not shown) [Example 171, 5-[6-[4-[2-[4-[4-(2,6-dioxo-3-piperidyl)-3-oxo-piperazin-1-yl]-3,3-difluoro-1-piperidyl]acetyl]piperazin-1-yl]-3-pyridyl]-3-[3-[[ethyl(methyl)sulfamoyl]amino]-2,6-difluoro-benzoyl]-1H-pyrrolo[2,3-b]pyridine], for which the DC50 turned out to be 5.87 nM and the Emax worked out at 7.61%.

As for `CCN(C)S(=O)(=O)Nc1ccc(F)c(C(=O)c2c[nH]c3ncc(-c4ccc(N5CCN(C(=O)CN6CCC(N7CCN(C8CCC(=O)NC8=O)C(=O)C7)C(F)(F)C6)CC5)cc4)cc23)c1F` (stereo not shown) [Example 172, 5-[4-[4-[2-[4-[4-(2,6-dioxo-3-piperidyl)-3-oxo-piperazin-1-yl]-3,3-difluoro-1-piperidyl]acetyl]piperazin-1-yl]phenyl]-3-[3-[[ethyl(methyl)sulfamoyl]amino]-2,6-difluoro-benzoyl]-1H-pyrrolo[2,3-b]pyridine], the 50% degradation concentration (DC50) is 4.67 nM and the Emax stood at 6.28%.

In the case of `CCN(C)S(=O)(=O)Nc1ccc(F)c(C(=O)c2c[nH]c3ncc(-c4cnc(N5CCN(C(=O)CN6CCC(N7CCN(C8CCC(=O)NC8=O)C(=O)C7)C(F)(F)C6)CC5)nc4)cc23)c1F` (stereo not shown) [Example 173, 5-[2-[4-[2-[4-[4-(2,6-dioxo-3-piperidyl)-3-oxo-piperazin-1-yl]-3,3-difluoro-1-piperidyl]acetyl]piperazin-1-yl]pyrimidin-5-yl]-3-[3-[[ethyl(methyl)sulfamoyl]amino]-2,6-difluoro-benzoyl]-1H-pyrrolo[2,3-b]pyridine], half-maximal degradation (DC50) was put at 6.37 nM and the maximal effect (Emax) amounted to 7.19%.

In the case of `CCN(C)S(=O)(=O)Nc1ccc(F)c(C(=O)c2c[nH]c3ncc(-c4cnc(N5CCN(C(=O)CC6(O)CCN(c7ccc(N[C@@H]8CCC(=O)NC8=O)cc7F)CC6)CC5)nc4)cc23)c1F` [Example 174, 5-[2-[4-[2-[1-[4-[[(3R)-2,6-dioxo-3-piperidyl]amino]-2-fluoro-phenyl]-4-hydroxy-4-piperidyl]acetyl]piperazin-1-yl]pyrimidin-5-yl]-3-[3-[[ethyl(methyl)sulfamoyl]amino]-2,6-difluoro-benzoyl]-1H-pyrrolo[2,3-b]pyridine], half-maximal degradation (DC50) was put at 2.39 nM and the Emax stood at 9.44%.

`CCN(C)S(=O)(=O)Nc1ccc(F)c(C(=O)c2c[nH]c3ncc(-c4ccc(N5CCN(C(=O)CC6(O)CCN(c7ccc(C8CCC(=O)NC8=O)cc7F)CC6)CC5)cc4)cc23)c1F` (stereo not shown) [Example 175, 5-[4-[4-[2-[1-[4-(2,6-dioxo-3-piperidyl)-2-fluoro-phenyl]-4-hydroxy-4-piperidyl]acetyl]piperazin-1-yl]phenyl]-3-[3-[[ethyl(methyl)sulfamoyl]amino]-2,6-difluoro-benzoyl]-1H-pyrrolo[2,3-b]pyridine]: the DC50 was 7.12 nM and the Emax was determined as 9.59%.

Take `CCN(C)S(=O)(=O)Nc1ccc(F)c(C(=O)c2c[nH]c3ncc(-c4ccc(N5CCN(C(=O)CC6(O)CCN(c7ccc(N[C@H]8CCC(=O)NC8=O)cc7F)CC6)CC5)nc4)cc23)c1F` [Example 176, 5-[6-[4-[2-[1-[4-[[(3S)-2,6-dioxo-3-piperidyl]amino]-2-fluoro-phenyl]-4-hydroxy-4-piperidyl]acetyl]piperazin-1-yl]-3-pyridyl]-3-[3-[[ethyl(methyl)sulfamoyl]amino]-2,6-difluoro-benzoyl]-1H-pyrrolo[2,3-b]pyridine]: the DC50 is 5.84 nM and the Emax stood at 9.54%.
